# Activity calls are given as the source filed them. The rule behind the calls is not given here.
# Experiments:
# [1] = test system: HT-1080; assay: Anti-ferroptotic activity against Erastin-induced human HT-1080 cells assessed as inhibition of ferroptosis incubated for 72 hrs by CCK-8 assay; type: functional, cell-based
# [2] = test system: HT-1080; assay: Anti-ferroptotic activity against Erastin-induced ferroptosis in human HT-1080 cells assessed as inhibition of lipid peroxidation production at 10 uM incubated for 24 hrs by C11-BODIPY 581/591 based flow cytometry relative to control; type: functional; settings: HT-1080, 24 h, values are per cent of control
# [3] = test system: MEF; assay: Anti-ferroptotic activity against tamoxifen induced Gpx4 knockout mouse MEF cells assessed as inhibition of ferroptosis incubated for 72 hrs by AquaBluerTM assay; type: functional, cell-based
# [4] = test system: HT-1080; assay: Anti-ferroptotic activity against Erastin-induced human HT-1080 cells assessed as inhibition of ferroptosis incubated for 24 hrs by Alamar blue dye based assay; type: functional, cell-based; settings: HT-1080, 24 h
# [5] = test system: N2a; assay: Cytoprotective activity against oxygen-glucose deprivation/reoxygenation induced cell injury in mouse N2a cells assessed as increase in cell viability at 1 uM incubated for 2 hrs under hypoxia condition and measured after 24 hrs; type: functional, cell-based; settings: time 26.0 hrs
# [6] = Cytotoxicity against human L02 cells incubated for 2 hrs by CCK-8 assay; type: toxicity, cell-based
# [7] = Antioxidant activity assessed as DPPH radical scavenging activity at 0.4 uM incubated for 30 mins by Beckman Coulter analysis relative to control; type: functional
# [8] = test system: HT-1080; assay: Anti-ferroptotic activity against Erastin-induced ferroptosis in human HT-1080 cells assessed as inhibition of lipid ROS production at 10 uM incubated for 24 hrs by C11-BODIPY 581/591 based flow cytometry relative to control; type: functional; settings: HT-1080, 24 h, values are per cent of control
# [9] = Apparent permeability of compound at 10 uM incubated for 16 hrs by PAMPA based LC-MS/MS analysis; type: ADME
# [10] = test system: Mus musculus; assay: Neuroprotective activity against transient middle cerebral artery occlusion induced ischemia stroke female SPF C57 mouse model assessed as reduction in cerebral infarct volume at 5 mg/kg,iv measured after 24 hrs by TTC staining based analysis relative to control; type: functional; design: scale not given: the % may be the effect or the level left
# [11] = test system: Hippocampus; assay: Anti-ferroptotic activity against glutamate-induced rat Hippocampus assessed as inhibition of ferroptosis; type: functional, tissue-based
# [12] = test system: N2a; assay: Cytoprotective activity against oxygen-glucose deprivation/reoxygenation induced cell injury in mouse N2a cells assessed as upregulation of SLC7A11 expression at 1 uM incubated for 2 hrs under hypoxia condition and measured after 24 hrs by Western blotting analysis; type: functional, cell-based; settings: time 26.0 hrs
# [13] = test system: N2a; assay: Cytoprotective activity against oxygen-glucose deprivation/reoxygenation induced cell injury in mouse N2a cells assessed as upregulation of GPX4 expression at 1 uM incubated for 2 hrs under hypoxia condition and measured after 24 hrs by Western blotting analysis; type: functional, cell-based; settings: time 26.0 hrs
# [14] = Drug concentration in ICR mouse brain at 1 mg/kg,iv administration measured after 0.25 hrs by LC-MS/MS analysis; type: ADME, organism-based; settings: in vivo
# [15] = Half life in ICR mouse at 1 mg/kg,iv administration measured upto 24 hrs by LC-MS/MS analysis; type: ADME, organism-based; settings: in vivo
# [16] = test system: Mus musculus; assay: Neuroprotective activity against transient middle cerebral artery occlusion induced ischemia stroke female SPF C57 mouse model assessed as reduction in neurological deficit score at 5 mg/kg,iv measured after 24 hrs; type: functional
# [17] = Tmax in ICR mouse at 1 mg/kg,iv administration measured upto 24 hrs by LC-MS/MS analysis; type: ADME, organism-based; settings: in vivo
# [18] = AUC (0 to infinity) in ICR mouse at 1 mg/kg,iv administration measured upto 24 hrs by LC-MS/MS analysis; type: ADME, organism-based; settings: in vivo
# [19] = Drug concentration in ICR mouse lung at 1 mg/kg,iv administration measured after 0.5 hrs by LC-MS/MS analysis; type: ADME, organism-based; settings: in vivo
# [20] = Drug concentration in ICR mouse liver at 1 mg/kg,iv administration measured after 0.083 hrs by LC-MS/MS analysis; type: ADME, organism-based; settings: in vivo
# [21] = Drug concentration in ICR mouse lung at 1 mg/kg,iv administration measured after 0.25 hrs by LC-MS/MS analysis; type: ADME, organism-based; settings: in vivo
# [22] = Drug concentration in ICR mouse kidney at 1 mg/kg,iv administration measured after 0.25 hrs by LC-MS/MS analysis; type: ADME, organism-based; settings: in vivo
# [23] = Drug concentration in ICR mouse liver at 1 mg/kg,iv administration measured after 0.5 hrs by LC-MS/MS analysis; type: ADME, organism-based; settings: in vivo
# [24] = test system: HT-1080; assay: Anti-ferroptotic activity against Erastin-induced ferroptosis in human HT-1080 cells assessed as inhibition of lipid ROS production at 0.5 uM incubated for 24 hrs by C11-BODIPY 581/591 based flow cytometry relative to control; type: functional
# [25] = Drug concentration in ICR mouse kidney at 1 mg/kg,iv administration measured after 0.083 hrs by LC-MS/MS analysis; type: ADME, organism-based; settings: in vivo
# [26] = Drug concentration in ICR mouse brain at 1 mg/kg,iv administration measured after 0.083 hrs by LC-MS/MS analysis; type: ADME, organism-based; settings: in vivo
# [27] = Drug concentration in ICR mouse kidney at 1 mg/kg,iv administration measured after 0.5 hrs by LC-MS/MS analysis; type: ADME, organism-based; settings: in vivo
# [28] = test system: Mus musculus; assay: Neuroprotective activity against transient middle cerebral artery occlusion induced ischemia stroke female SPF C57 mouse model assessed as reduction in cerebral edema at 5 mg/kg,iv measured after 24 hrs; type: functional, organism-based
# [29] = Drug concentration in ICR mouse kidney at 1 mg/kg,iv administration measured after 1 hrs by LC-MS/MS analysis; type: ADME, organism-based; settings: in vivo
# [30] = Drug concentration in ICR mouse liver at 1 mg/kg,iv administration measured after 1 hrs by LC-MS/MS analysis; type: ADME, organism-based; settings: in vivo
# [31] = test system: HEK293; assay: Cytotoxicity against human HEK293 cells incubated for 2 hrs by CCK-8 assay; type: toxicity, cell-based; settings: hek293, 2 h
# [32] = Drug concentration in ICR mouse lung at 1 mg/kg,iv administration measured after 0.083 hrs by LC-MS/MS analysis; type: ADME, organism-based; settings: in vivo
# [33] = test system: Mus musculus; assay: Neuroprotective activity against transient middle cerebral artery occlusion induced ischemia stroke female SPF C57 mouse model assessed as upregulation of SLC7A11 expression at 5 mg/kg,iv measured after 24 hrs by Western blotting analysis; type: functional, organism-based
# [34] = Cytotoxicity against human H6C7 cells incubated for 2 hrs by CCK-8 assay; type: toxicity, cell-based; settings: h6c7, 2 h
# [35] = Drug concentration in ICR mouse liver at 1 mg/kg,iv administration measured after 0.25 hrs by LC-MS/MS analysis; type: ADME, organism-based; settings: in vivo
# [36] = test system: Mus musculus; assay: Neuroprotective activity against transient middle cerebral artery occlusion induced ischemia stroke female SPF C57 mouse model assessed as upregulation of GPX expression at 5 mg/kg,iv measured after 24 hrs by Western blotting analysis; type: functional, organism-based
# [37] = Cmax in ICR mouse at 1 mg/kg,iv administration measured upto 24 hrs by LC-MS/MS analysis; type: ADME, organism-based; settings: in vivo
# [38] = AUC (0 to t) in ICR mouse at 1 mg/kg,iv administration measured upto 24 hrs by LC-MS/MS analysis; type: ADME, organism-based; settings: in vivo
# [39] = Drug concentration in ICR mouse brain at 1 mg/kg,iv administration measured after 0.5 hrs by LC-MS/MS analysis; type: ADME, organism-based; settings: in vivo
# [40] = Homo sapiens, HT-1080, 72 h, read-out: IC50
smiles,measurement,setting,value
COc1ccc(Nc2ccc(-c3nnn(C)n3)cc2NC2CCCCC2)cn1,IC50,[1]; [40],0.075 µM
N#CCn1nnc(-c2ccc(NC3CCCCC3)cc2)n1,IC50,[1]; [40],8.12 µM
Cn1nnc(-c2ccc(NC3CCCCC3)cc2)n1,IC50,[1]; [40],0.122 µM
same,"response, % of control at 10 µM",[2],5.96%
CCCCCCCCNc1ccc(-c2nnn(C)n2)cc1N,IC50,[1]; [40],0.497 µM
O=C1c2c(O)cc(O)cc2O[C@H](c2ccc(O)c(O)c2)[C@H]1O [(+)-TAXIFOLIN],IC50,[1]; [40],> 10 µM
Cc1c(-c2nnn(C)n2)ccc(NC2CCCCC2)c1N,IC50,[1]; [40],0.044 µM
Oc1cc(O)cc(/C=C/c2ccc(O)cc2O)c1 [OXYRESVERATROL],IC50,[1]; ht-1080,Not Active
Cn1nnc(-c2ccc(NC3CCCCC3)c(NCc3ccccc3)c2)n1,IC50,[1]; [40],> 1 µM
FC(F)(F)Cn1nnc(-c2ccc(NC3CCCCC3)cc2)n1,IC50,[1]; [40],> 10 µM
Cn1nnc(-c2cc(N)c(NC3CCCCC3)cc2Cl)n1,IC50,[1]; [40],0.017 µM
Cn1nnc(-c2cnc(NC3CCCCC3)s2)n1,IC50,[1]; [40],> 1 µM
COc1ccc(Nc2ccc(-c3nnn(C)n3)cc2NC2CCCCC2)cc1,IC50,[1]; [40],0.081 µM
COc1cc(NC2CCCCC2)c(N)cc1-c1nnn(C)n1,IC50,[1]; [40],0.801 µM
Clc1cccc(CNC2=Nc3ccccc3NC23CCNCC3)c1,IC50,[3],0.022 µM
Cn1nnc(-c2ccc(O)c(NC3CCCCC3)c2)n1,IC50,[1]; [40],> 1 µM
Cc1cc(NC2CCCCC2)c(N)cc1-c1nnn(C)n1,IC50,[1]; [40],0.071 µM
CNc1ccc(-c2nnn(C)n2)cc1,IC50,[1]; [40],8.22 µM
Cn1nnc(-c2ccc(NC3CCCCC3)cc2C(F)(F)F)n1,IC50,[1]; [40],> 1 µM
Cn1nnc(-c2ccc(NC3CCCCC3)cn2)n1,IC50,[1]; [40],> 1 µM
O=C1C[C@@H](c2ccc(O)c(O)c2)Oc2cc(O[C@@H]3O[C@H](CO)[C@@H](O)[C@H](O)[C@H]3O)cc(O)c21,IC50,[1]; [40],10 µM
COc1cc(-c2nnn(C)n2)ccc1NC1CCCCC1,IC50,[1]; [40],> 1 µM
Cn1nnc(-c2ccc(NC3CCCCC3)cc2N)n1,IC50,[1]; [40],> 1 µM
CCOC(=O)c1ccc(NC2CCCCC2)c(NCc2ccccc2)c1,IC50,[4],0.006 µM
c1cc(-c2nn[nH]n2)ccc1NC1CCCCC1,IC50,[1]; [40],> 10 µM
Cn1nnc(-c2cc(N)c(NC3CCCCC3)cc2F)n1,IC50,[1]; [40],0.049 µM
same,Activity,[5],Active
same,IC50 at 2 h,[6],12.3 µM
same,inhibition,[7],35.3%
CCOC(=O)c1ccc(NC2CCCCC2)c(N)c1,"response, % of control at 10 µM",[8],2.29%
same,IC50,[1]; [40],0.06 µM
same,"Papp at 16 h, 10 µM",[9],67.6 nm/s
same,Activity,[10],9.98%
same,IC50,[11],0.09 µM
same,Activity,[12],Active
same,inhibition,[7],inactive
same,"response, % of control at 10 µM",[2],0.58%
same,Activity,[13],Active
Cc1cc(NC2CCCCC2)ccc1-c1nnn(C)n1,IC50,[1]; [40],0.99 µM
Cn1nnc(-c2ccc(NC3CCCCC3)c(NCc3ccncc3)c2)n1,IC50,[1]; [40],> 1 µM
CN(c1ccc(-c2nnn(C)n2)cc1)C1CCCCC1,IC50,[1]; [40],> 10 µM
Cn1nnc(-c2ccc(Nc3cccnc3)c(NC3CCCCC3)c2)n1,IC50,[1]; [40],0.186 µM
O=S1(=O)CCN(Cc2cc(NC3CCOCC3)c3[nH]c(-c4ccccc4)cc3c2)CC1,IC50,[1]; [40],6 µM
Cn1nnc(-c2ccc(N)c(NC3CCCCC3)c2)n1,Ct,[14],0.04 mg/kg
same,"response, % of control at 10 µM",[8],0.57%
same,IC50,[1]; [40],0.022 µM
same,half-life,[15],6 min
same,Activity,[16],2
same,Tmax,[17],4.8 min
same,AUC(0-inf),[18],0.0956 µg·h/mL
same,Ct,[19],0.1 mg/kg
same,Ct,[20],0.32 mg/kg
same,"Papp at 16 h, 10 µM",[9],38.9 nm/s
same,Ct,[21],0.19 mg/kg
same,Ct,[22],0.38 mg/kg
same,Ct,[23],0.09 mg/kg
same,inhibition at 0.5 µM,[24],0.3%
same,Activity,[10],12.03%
same,Ct,[25],0.41 mg/kg
same,Ct,[26],0.09 mg/kg
same,Ct,[27],0.12 mg/kg
same,Activity,[28],Active
same,Ct,[29],0.03 mg/kg
same,Activity,[5],Active
same,Ct,[30],0.02 mg/kg
same,Activity,[31],Toxic
same,Activity,[12],Active
same,Ct,[32],0.37 mg/kg
same,Activity,[33],Active
same,Activity,[34],Toxic
same,Ct,[35],0.24 mg/kg
same,Activity,[36],Active
same,Cmax,[37],0.367 µg/mL
same,inhibition,[7],41.3%
same,AUC(0-t) at 24 h,[38],0.0915 µg·h/mL
same,Activity,[13],Active
same,Ct,[39],0.02 mg/kg
Cn1nnc(-c2c(F)cc(NC3CCCCC3)cc2F)n1,IC50,[1]; [40],> 1 µM
Cn1nnc(-c2ccc(NC3CCCCC3)c(N)c2)n1,IC50,[1]; [40],0.03 µM
Cn1nnc(-c2ccc(NC3CCCCC3)cc2Cl)n1,IC50,[1]; [40],> 1 µM
Cn1nnc(-c2ccc(NC3CCCCC3)cc2F)n1,IC50,[1]; [40],> 1 µM
CCn1nnc(-c2ccc(NC3CCCCC3)cc2)n1,IC50,[1]; [40],8.51 µM
Cn1nnc(-c2cccc(NC3CCCCC3)c2N)n1,IC50,[1]; [40],> 1 µM
